For one series, the system named is MCF-7. The series is described as follows: MTT cytotoxicity assay against breast cancer cell line MCF-7. The conditions noted are these: for Cytotoxic activity class against MCF-7: class by IC50. Here is the method:
All our newly synthesized hybrids were evaluated for their in vitro anticancer activity by the standard MTT assay against a breast cancer cell line (MCF-7). MTT is a calorimetric assay which relies on the ability of live tumor cells to reduce yellow MTT (3-(4,5-dimethylthiazol-2-yl)-2,5-diphenyltetrazolium bromide) to purple formazan by mitochondrial dehydrogenases, then added DMSO to dissolve the purple formazan and quantified by measuring absorbance at a certain wavelength. The dose response curve for compounds-treated vs. untreated cells is used to quantify the amount of formazan produced to report on the effectiveness of the compounds. […] Cell line: Mammary gland breast cancer (MCF-7). The cell line was obtained from ATCC via Holding company for biological products and vaccines (VACSERA), Cairo, Egypt. […] The cell line elucidated above were used to determine the inhibitory effects of compounds on cell growth using the MTT assay. […] After incubation, the cells were treated with different concentrations of compounds and incubated for an additional 24 h. After 24 h of drug treatment, 20 µL of MTT solution at 5 mg/mL was added and incubated for 4 h. […] The relative cell viability in percentage was calculated as (A570 of treated samples/A570 of the untreated sample) × 100 [48].

For series [1], the target named is T1, Pin1 (Homo sapiens, UniProt Q13526). Briefly: Pin1 inhibition assay (SensoLyte Green Pin1 Assay Kit). Format: biochemical. More on the design: purchased. As to conditions: for inhibition at 0.0001 µg/mL: conc 0.1 ng/ml; for inhibition at 0.0001 µg/mL / inhibition at 0.001 µg/mL / inhibition at 0.01 µg/mL / inhibition at 0.1 µg/mL: read-out: Pin1 %inh; for inhibition at 0.001 µg/mL: conc 1 ng/ml; for inhibition at 0.01 µg/mL: conc 10 ng/ml; for inhibition at 0.1 µg/mL: conc 100 ng/ml; for IC50: means ± SD of three experiments. On the procedure:
The ability of the synthesized compounds to inhibit the Pin1 activity was evaluated using the SensoLyte® Green Pin1 Assay Kit. This assay is based on using a fluorogenic substrate which was pretreated to convert it into the cis isomer. Pin1 can change this substrate into the trans isomer that is easily cleaved to generate a fluorescent signal.

A short description of series [2]: In vitro cytotoxicity against normal Human lung fibroblast (WI38) cell line. Format: cell-based. As to conditions: human, WI38 normal lung fibroblast cells.
The target of series [3] is T1, Pin1. Briefly: 2D 15N-1H HSQC NMR binding to 15N-labeled Pin1. More on the design: Backbone and side-chain chemical shift assignments of full-length, apo, human Pin1; made in house. The conditions noted are these: Pin1 200 µM, compound 1 mM, 5% DMSO. From the text: Herein, ^15N-labeled Pin1 enzyme is used where we recorded HSQC spectra of the protein alone and in the presence of an excess amount of one of the newly synthesized compounds. The main challenge we faced in our research was the compound solubility in a balanced mixture of the protein aqueous buffer. Although our compound was freely soluble in DMSO, it is inapplicable to use pure DMSO to dissolve the protein because this will result in protein denaturation and probably aggregation. Therefore, only one compound was tested where we were able to dissolve it partially in a mixture of 95% buffer and 5% DMSO. In addition, as a control, the spectrum was recorded only in presence of DMSO and compared to the ones with the ligand. The proportion of Pin1 to the compounds was adjusted to be […]. […] Chemical shift perturbation and peak shifting are indicative of fast exchange between free and bound states which results in peak positions averaging. […] This peak disappearing indicated exchange on the μs–ms time scale (Figure 1). Furthermore, our NMR results have been verified using cell lines.
The expression and purification of ^15N-labeled Pin1 was performed according to the known protocol. The enzyme sample reached a final concentration of 200 µM in PBS buffer at pH = 6.5. Compound number 12 was dissolved in DMSO and added to the protein to achieve a final concentration of 1 mM in the NMR tube. […]

A further series has as its target Pin1's PPIase activity. Details: method as in PMID 19969456. The conditions noted are these: read-out: IC50 of Pin1's PPIase activity inhibition; cited from earlier work.
The mark [4] stands for this setting: Homo sapiens, MCF7, 24 h, read-out: In Vitro Cytotoxicity IC50 MCF-7, MTT assay, 24 h treatment.
[5] abbreviates: Homo sapiens, MCF7, read-out: IC50 against breast cancer cell line (MCF-7), MTT assay, section 2.2.

Where “and” joins values, the source holds several entries; their conditions need not be identical. Equal values may be shown once. Read-outs that look alike come from different tables or passages of the source.

T1 sequence (Q13526 whole entry): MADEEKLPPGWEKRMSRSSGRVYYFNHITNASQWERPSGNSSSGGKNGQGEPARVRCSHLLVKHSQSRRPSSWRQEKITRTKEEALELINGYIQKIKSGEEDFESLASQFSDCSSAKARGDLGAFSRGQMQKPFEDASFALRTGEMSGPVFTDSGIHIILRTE

In general, IC50 refers to the concentration at which inhibition is half-maximal. In the series with MCF-7, “2-(4-Bromophenyl)-7,8-dichlorobenzo[4,5]imidazo[1,2-a]pyridin-4-ol [Compound 14]” came in with a concentration for half-maximal inhibition (IC50) of 46 ± 2.9 µM.

As to `CC(O)c1nc2cc(Cl)c(Cl)cc2[nH]1` (stereo not shown) [Compound 2], at Pin1 [1], the inhibition at 0.0001 µg/mL was determined as 39.2%, the inhibition at 0.001 µg/mL was 51.1%, the inhibition at 0.01 µg/mL came to 67% and the inhibition at 0.1 µg/mL came out at 85.2%.

For orientation: melting point means the temperature of the solid-liquid transition. Take `CN(C)c1ccc(/C=C/C(=O)c2nc3cc(Cl)c(Cl)cc3[nH]2)cc1` [Compound 4, (E)-1-(5,6-Dichloro-1H-benzo[d]imidazol-2-yl)-3-(4-(dimethylamino)phenyl)prop-2-en-1-one]: the melting point lay within 258 to 260 °C. In addition, in the series on MCF-7 (setting [4]), the IC50 was 26.9 µM. For the same compound, the “Cytotoxic activity class against MCF-7” value in the series on MCF-7 was “moderate (21–50 (moderate))”. In addition, the IC50 in the series with MCF-7 (read-out: In Vitro Cytotoxicity IC50 MCF-7, MTT assay, 24 h treatment) was determined as 26.8 ± 2.1 µM.

`CN(C)c1ccc(C2=NN=C(c3nc4cc(Cl)c(Cl)cc4[nH]3)C2)cc1` [Compound 5, 4-(5-(5,6-Dichloro-1H-benzo[d]imidazol-2-yl)-4H-pyrazol-3-yl)-N,N-dimethylaniline] displayed a melting point of 216 °C. In addition, the IC50 in the series on MCF-7 (setting [4]) came out at 11.7 ± 0.9 µM. Further, the IC50 in the series with MCF-7 (setting [5]) is 11.8 µM. The “Cytotoxic activity class against MCF-7” value in the series with MCF-7 was “strong (11–20 (strong))”. The compound also yielded an IC50 at 24 h in series [2] of 67.9 ± 3.6 µM. The same compound returned an IC50 on Pin1 [1] of 0.00064 ± 3e-05 µM.

With `CN(C)c1ccc(-c2cc(-c3nc4cc(Cl)c(Cl)cc4[nH]3)nc(N)c2C#N)cc1` [Compound 6, 2-Amino-6-(5,6-dichloro-1H-benzo[d]imidazol-2-yl)-4-(4-(dimethylamino)phenyl)nicotinonitrile], the melting point lay in the range of 168 to 170 °C. The IC50 in the series on MCF-7 (setting [4]) turned out to be 15.4 ± 1.3 µM. Moreover, the IC50 in the series on MCF-7 (setting [5]) was determined as 15.5 µM. Also, the “Cytotoxic activity class against MCF-7” value in the series on MCF-7 is recorded as “strong (11–20 (strong))”.

In the case of `CN(C)c1ccc(C2C=C(c3nc4cc(Cl)c(Cl)cc4[nH]3)OC(N)=C2C#N)cc1` (stereo not shown) [Compound 7, 2-Amino-6-(5,6-dichloro-1H-benzo[d]imidazol-2-yl)-4-(4-(dimethylamino)phenyl)-4H-pyran-3-carbonitrile], the melting point is 150 °C. For the same compound, the IC50 in the series with MCF-7 (setting [4]) worked out at 21 ± 1.8 µM. Moreover, the “Cytotoxic activity class against MCF-7” value with MCF-7 is “moderate (21–50 (moderate))”.

On to `CC(=O)c1nc2cc(Cl)c(Cl)cc2n1CC(=O)c1ccc(Br)cc1` [Compound 9, 2-(2-Acetyl-5,6-dichloro-1H-benzo[d]imidazol-1-yl)-1-(4-bromophenyl)ethan-1-one], for which the melting point was 322 °C. Further, the IC50 in the series with MCF-7 (setting [4]) is 63.9 ± 3.4 µM. Moreover, at Pin1 [1], the inhibition at 0.0001 µg/mL came out at 34.7%, the inhibition at 0.001 µg/mL worked out at 42.2%, the inhibition at 0.01 µg/mL is 69.5% and the inhibition at 0.1 µg/mL came out at 87.5%.

For `C=C1c2nc3cc(Cl)c(Cl)cc3n2C=C(c2ccc(Br)cc2)N1c1ccc(C)cc1` [Compound 10, 3-(4-Bromophenyl)-7,8-dichloro-1-methylene-2-(p-tolyl)-1,2-dihydrobenzo[4,5]imidazo[1,2-a]pyrazine], the melting point was determined as 211 °C. Also, the IC50 with MCF-7 (setting [4]) was 53 ± 3.1 µM. In the series on MCF-7, the “Cytotoxic activity class against MCF-7” value is reported as “weak (51–100 (weak))”.

`C=C1c2nc3cc(Cl)c(Cl)cc3n2C=C(c2ccc(Br)cc2)N1c1ccccc1C` [Compound 11, 3-(4-Bromophenyl)-7,8-dichloro-1-methylene-2-(o-tolyl)-1,2-dihydrobenzo[4,5]imidazo[1,2-a]pyrazine] gave a melting point of 106 °C. Also, the IC50 in the series on MCF-7 (setting [4]) amounted to 38 ± 2.7 µM. In addition, in the series with MCF-7, the “Cytotoxic activity class against MCF-7” value was “moderate (21–50 (moderate))”.

With `C=C1c2nc3cc(Cl)c(Cl)cc3n2C=C(c2ccc(Br)cc2)N1Cc1ccccc1` [Compound 12, 2-Benzyl-3-(4-bromophenyl)-7,8-dichloro-1-methylene-1,2-dihydrobenzo[4,5]imidazo[1,2-a]pyrazine], the melting point is 85 °C. Besides, the IC50 in the series with MCF-7 (setting [4]) is 31.3 ± 2.5 µM. In addition, the “Cytotoxic activity class against MCF-7” value in the series with MCF-7 is “moderate (21–50 (moderate))”. The compound also had a 50% inhibitory concentration (IC50) at 24 h in series [2] of 45.7 ± 2.8 µM. On Pin1 [1], the IC50 was 0.00111 µM and 0.0011 µM. The “Binding to Pin1 by HSQC spectra overlay” value at Pin1 [3] was “chemical shift perturbation and peak disappearance”.

The compound `Cc1nc(-c2ccc(Br)cc2)cn2c1nc1cc(Cl)c(Cl)cc12` [Compound 13, 3-(4-Bromophenyl)-7,8-dichloro-1-methylbenzo[4,5]imidazo[1,2-a]pyrazine] displayed a melting point of 290 °C. Further, the IC50 in the series with MCF-7 (setting [4]) came out at 71.8 ± 3.8 µM. In the series on MCF-7 (setting [5]), the IC50 was found to be 71.9 µM. The “Cytotoxic activity class against MCF-7” value in the series on MCF-7 is listed as “weak (51–100 (weak))”.

Consider `O=C(O)c1cc2ccccc2[nH]1` [Indole-2-carboxylic acid (I), Indole-2-carboxylic acid], for which, on Pin1's PPIase activity, the IC50 was 16 µM.

For Tannic acid [reference compound], the IC50 against Pin1 [1] was 0.000535 µM and 0.00053 µM.

The values are drawn from PMC9414874, “New Benzimidazoles Targeting Breast Cancer: Synthesis, Pin1 Inhibition, 2D NMR Binding, and Computational Studies” (Molecules, 2022).
